Results: patent publication US10800791B2, “Triazole ACC inhibitors and uses thereof” (Gilead Apollo, LLC, priority 2015, dated 2020)
≈ marks a conversion by molar mass, not a printed value. Where two headings read alike, the source gives them in different places.

Experiments:
human (hACC2) = human (hACC2) (Homo sapiens, UniProt O00763); assay: In vitro ACC inhibition assay (ADP-Glo), hACC2; type: biochemical; settings: 5 nM ACC2, 20 μM ATP, 20 μM acetyl-CoA
Description: The detailed procedure is as follows. […] 10 μL ADP glo reagent was added. […] 20 μL kinase detection reagent was added.

[1] = system: Fusarium moniliforme (Fm); assay: Growth inhibition assay of fungal pathogens, Fm; type: cell-based; settings: Fusarium verticillioides, 48 h, read-out: Concentration at 90% Inhibition Fm
Summary of the method: (§1)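 Spores from sub-cultured plates were diluted in 17% V8 liquid medium and exposed to compound from DMSO stocks at final concentrations of 50, 10 and 2 ppm or 2, 0.4 and 0.08 ppm. OD600 and visual ratings at 48 h were compared with the 2% DMSO control to give percent growth inhibition.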

[2] = system: Phytophthora capsici (Pc); assay: Growth inhibition assay of fungal pathogens, Pc; type: cell-based; settings: 48 h
Summary of the method: as §1

Botrtyis cinerea (Bc) = assay: Growth inhibition assay of fungal pathogens, Bc; type: cell-based; settings: 48 h, growth inhibition at 48 hours vs 2% DMSO control
Summary of the method: as §1

[3] = system: Collectotrichum graminicola (Cg); assay: Growth inhibition assay of fungal pathogens, Cg; type: cell-based; settings: 48 h, growth inhibition at 48 hours vs 2% DMSO control
Summary of the method: as §1

Rhizoctonia solani (Rs) = assay: Growth inhibition assay of fungal pathogens, Rs; type: cell-based; settings: 48 h
C. krusei = assay: Antifungal Activity Assay (broth microtiter MIC), C. krusei; type: cell-based, Candida krusei; settings: Pichia kudriavzevii, ATCC6258, 48 h
Summary of the method: (§2)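 Endpoint: lowest concentration visibly inhibiting growth relative to control after 48 h. Inoculum of 2.5×10^3 CFU/mL final in RPMI 1640+MOPS, prepared from overnight 35° C agar cultures; test compounds diluted in water to 128 μg/mL before plating.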

Diplodia maydis (Dm) = assay: Growth inhibition assay of fungal pathogens, Dm; type: cell-based; settings: Stenocarpella maydis, 48 h, growth inhibition at 48 hours vs 2% DMSO control
Summary of the method: as §1

[4] = system: Fusarium virguliforme (Fv); assay: Growth inhibition assay of fungal pathogens, Fv; type: cell-based; settings: 48 h
Summary of the method: as §1

C. parapsilosis = assay: Antifungal Activity Assay (broth microtiter MIC), C. parapsilosis; type: cell-based, Candida parapsilosis; settings: Lodderomyces parapsilosis, ATCC22019, 48 h
Summary of the method: as §2

Septoria tritici (St) = assay: Growth inhibition assay of fungal pathogens, St; type: cell-based; settings: Zymoseptoria tritici, 48 h, growth inhibition at 48 hours vs 2% DMSO control
Summary of the method: as §1

C. albicans = assay: Antifungal Activity Assay (broth microtiter MIC), C. albicans; type: cell-based, Candida albicans; settings: Candida albicans, ATCC90028, 48 h
Summary of the method: as §2

fungal (fACC2) = fungal (fACC2) (UniProt Q00955); settings: read-out: fACC2 (in vitro ACC2 Inhibition Assay, IC50), ADP-Glo, 5 nM ACC2, 20 μM ATP, 20 μM acetyl-CoA
[5] = read-out: Concentration at 90% Inhibition Pc, Phytophthora capsici, growth inhibition at 48 hours vs 2% DMSO control
[6] = read-out: Concentration at 90% Inhibition Bc, Botrtyis cinerea
[7] = read-out: Concentration at 90% Inhibition Cg, Collectotrichum graminicola
[8] = read-out: Concentration at 90% Inhibition Rs, Rhizoctonia solani, mycelial plugs, growth inhibition at 48 hours vs 2% DMSO control
[9] = read-out: MIC, C. krusei ATCC 6258, Table 3a, 3 replicates, MIC recorded at 48 h
[10] = read-out: MIC, C. krusei ATCC 6258, Table 3b (additional results), 3 replicates, MIC recorded at 48 h
[11] = read-out: Concentration at 90% Inhibition Dm, Diplodia maydis
[12] = read-out: Concentration at 90% Inhibition Fv, Fusarium virguliforme, growth inhibition at 48 hours vs 2% DMSO control
[13] = read-out: MIC, C. parapsilosis ATCC 22019, Table 3a, 3 replicates, MIC recorded at 48 h
[14] = read-out: MIC, C. parapsilosis ATCC 22019, Table 3b (additional results), 3 replicates, MIC recorded at 48 h
[15] = read-out: Concentration at 90% Inhibition St, Septoria tritici
[16] = read-out: MIC, C. albicans ATCC 90028, Table 3a, 3 replicates, MIC recorded at 48 h
[17] = read-out: MIC, C. albicans ATCC 90028, Table 3b (additional results), 3 replicates, MIC recorded at 48 h
[18] = Fusarium moniliforme, growth inhibition at 48 hours vs 2% DMSO control
[19] = growth inhibition at 48 hours vs 2% DMSO control, read-out: Concentration at 90% Inhibition Pc
[20] = Botrtyis cinerea, read-out: Concentration at 90% Inhibition Bc
[21] = Collectotrichum graminicola, read-out: Concentration at 90% Inhibition Cg
[22] = mycelial plugs, growth inhibition at 48 hours vs 2% DMSO control, read-out: Concentration at 90% Inhibition Rs
[23] = Table 3a, ATCC 6258, 3 replicates, MIC recorded at 48 h, read-out: MIC, C. krusei ATCC 6258
[24] = Table 3b (additional results), ATCC 6258, 3 replicates, MIC recorded at 48 h, read-out: MIC, C. krusei ATCC 6258
[25] = Diplodia maydis, read-out: Concentration at 90% Inhibition Dm
[26] = growth inhibition at 48 hours vs 2% DMSO control, read-out: Concentration at 90% Inhibition Fv
[27] = Table 3a, ATCC 22019, 3 replicates, MIC recorded at 48 h, read-out: MIC, C. parapsilosis ATCC 22019
[28] = Table 3b (additional results), ATCC 22019, 3 replicates, MIC recorded at 48 h, read-out: MIC, C. parapsilosis ATCC 22019
[29] = Septoria tritici, read-out: Concentration at 90% Inhibition St
[30] = Table 3a, ATCC 90028, 3 replicates, MIC recorded at 48 h, read-out: MIC, C. albicans ATCC 90028
[31] = Table 3b (additional results), ATCC 90028, 3 replicates, MIC recorded at 48 h, read-out: MIC, C. albicans ATCC 90028

Sequence of human (hACC2) (O00763 whole entry): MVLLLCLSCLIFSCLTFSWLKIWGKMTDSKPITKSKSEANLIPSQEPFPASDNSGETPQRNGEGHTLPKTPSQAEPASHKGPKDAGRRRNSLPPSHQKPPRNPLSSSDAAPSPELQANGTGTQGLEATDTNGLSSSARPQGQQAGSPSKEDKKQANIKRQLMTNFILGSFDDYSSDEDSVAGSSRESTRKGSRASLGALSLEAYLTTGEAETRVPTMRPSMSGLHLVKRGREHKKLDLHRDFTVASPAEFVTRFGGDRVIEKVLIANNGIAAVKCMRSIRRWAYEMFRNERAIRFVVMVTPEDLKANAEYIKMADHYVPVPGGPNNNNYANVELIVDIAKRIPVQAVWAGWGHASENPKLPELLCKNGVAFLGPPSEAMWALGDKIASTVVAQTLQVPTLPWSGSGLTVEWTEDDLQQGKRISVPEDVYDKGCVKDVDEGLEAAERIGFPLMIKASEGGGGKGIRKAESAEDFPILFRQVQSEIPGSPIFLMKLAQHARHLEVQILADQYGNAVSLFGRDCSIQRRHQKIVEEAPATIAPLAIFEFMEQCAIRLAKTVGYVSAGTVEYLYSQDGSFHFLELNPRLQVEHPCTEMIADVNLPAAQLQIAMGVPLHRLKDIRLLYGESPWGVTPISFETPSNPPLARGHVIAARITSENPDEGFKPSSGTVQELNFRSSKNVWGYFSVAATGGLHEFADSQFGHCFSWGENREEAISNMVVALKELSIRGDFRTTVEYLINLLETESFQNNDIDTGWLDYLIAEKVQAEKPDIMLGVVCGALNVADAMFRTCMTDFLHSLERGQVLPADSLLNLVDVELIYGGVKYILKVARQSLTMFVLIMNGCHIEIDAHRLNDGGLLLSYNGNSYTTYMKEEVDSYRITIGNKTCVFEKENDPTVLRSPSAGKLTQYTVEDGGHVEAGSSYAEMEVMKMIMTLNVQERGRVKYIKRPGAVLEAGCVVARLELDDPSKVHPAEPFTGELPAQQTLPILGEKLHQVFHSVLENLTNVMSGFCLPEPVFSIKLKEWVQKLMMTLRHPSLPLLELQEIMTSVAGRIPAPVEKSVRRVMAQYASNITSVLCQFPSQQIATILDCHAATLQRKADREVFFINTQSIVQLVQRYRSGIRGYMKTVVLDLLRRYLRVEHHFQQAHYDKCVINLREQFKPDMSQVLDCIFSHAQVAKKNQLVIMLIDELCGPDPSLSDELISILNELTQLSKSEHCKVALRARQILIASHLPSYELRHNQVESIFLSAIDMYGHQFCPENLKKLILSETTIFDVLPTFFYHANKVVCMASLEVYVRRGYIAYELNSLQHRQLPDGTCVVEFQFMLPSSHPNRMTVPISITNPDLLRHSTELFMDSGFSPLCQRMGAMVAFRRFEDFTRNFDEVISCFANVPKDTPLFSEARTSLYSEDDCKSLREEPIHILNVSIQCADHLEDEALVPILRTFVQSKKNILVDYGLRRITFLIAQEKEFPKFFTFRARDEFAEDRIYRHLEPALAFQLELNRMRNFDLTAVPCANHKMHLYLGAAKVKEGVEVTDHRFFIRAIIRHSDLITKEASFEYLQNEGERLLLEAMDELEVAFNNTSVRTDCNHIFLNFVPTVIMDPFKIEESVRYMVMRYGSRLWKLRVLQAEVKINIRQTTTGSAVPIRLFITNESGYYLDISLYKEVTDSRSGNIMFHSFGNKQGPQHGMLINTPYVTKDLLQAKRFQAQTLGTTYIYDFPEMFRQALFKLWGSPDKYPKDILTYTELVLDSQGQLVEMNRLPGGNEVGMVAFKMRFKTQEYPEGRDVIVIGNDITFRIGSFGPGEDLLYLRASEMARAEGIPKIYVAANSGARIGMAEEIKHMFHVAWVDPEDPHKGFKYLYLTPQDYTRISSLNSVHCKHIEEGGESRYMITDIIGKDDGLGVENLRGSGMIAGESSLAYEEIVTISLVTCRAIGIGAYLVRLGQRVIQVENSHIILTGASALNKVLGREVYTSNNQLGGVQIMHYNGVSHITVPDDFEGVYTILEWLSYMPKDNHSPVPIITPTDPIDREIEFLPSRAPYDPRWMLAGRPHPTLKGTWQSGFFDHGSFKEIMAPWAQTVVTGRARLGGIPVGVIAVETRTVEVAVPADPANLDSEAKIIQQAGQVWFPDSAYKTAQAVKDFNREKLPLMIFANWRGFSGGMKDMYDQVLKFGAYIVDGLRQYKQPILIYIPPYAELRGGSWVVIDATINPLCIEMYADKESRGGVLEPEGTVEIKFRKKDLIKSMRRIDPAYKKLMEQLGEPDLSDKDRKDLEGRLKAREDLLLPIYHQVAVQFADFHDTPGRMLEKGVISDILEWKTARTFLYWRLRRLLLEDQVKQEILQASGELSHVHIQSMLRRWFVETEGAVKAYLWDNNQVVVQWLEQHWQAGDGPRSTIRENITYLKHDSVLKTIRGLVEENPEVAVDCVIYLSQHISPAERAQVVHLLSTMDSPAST
Sequence of fungal (fACC2) (Q00955 whole entry): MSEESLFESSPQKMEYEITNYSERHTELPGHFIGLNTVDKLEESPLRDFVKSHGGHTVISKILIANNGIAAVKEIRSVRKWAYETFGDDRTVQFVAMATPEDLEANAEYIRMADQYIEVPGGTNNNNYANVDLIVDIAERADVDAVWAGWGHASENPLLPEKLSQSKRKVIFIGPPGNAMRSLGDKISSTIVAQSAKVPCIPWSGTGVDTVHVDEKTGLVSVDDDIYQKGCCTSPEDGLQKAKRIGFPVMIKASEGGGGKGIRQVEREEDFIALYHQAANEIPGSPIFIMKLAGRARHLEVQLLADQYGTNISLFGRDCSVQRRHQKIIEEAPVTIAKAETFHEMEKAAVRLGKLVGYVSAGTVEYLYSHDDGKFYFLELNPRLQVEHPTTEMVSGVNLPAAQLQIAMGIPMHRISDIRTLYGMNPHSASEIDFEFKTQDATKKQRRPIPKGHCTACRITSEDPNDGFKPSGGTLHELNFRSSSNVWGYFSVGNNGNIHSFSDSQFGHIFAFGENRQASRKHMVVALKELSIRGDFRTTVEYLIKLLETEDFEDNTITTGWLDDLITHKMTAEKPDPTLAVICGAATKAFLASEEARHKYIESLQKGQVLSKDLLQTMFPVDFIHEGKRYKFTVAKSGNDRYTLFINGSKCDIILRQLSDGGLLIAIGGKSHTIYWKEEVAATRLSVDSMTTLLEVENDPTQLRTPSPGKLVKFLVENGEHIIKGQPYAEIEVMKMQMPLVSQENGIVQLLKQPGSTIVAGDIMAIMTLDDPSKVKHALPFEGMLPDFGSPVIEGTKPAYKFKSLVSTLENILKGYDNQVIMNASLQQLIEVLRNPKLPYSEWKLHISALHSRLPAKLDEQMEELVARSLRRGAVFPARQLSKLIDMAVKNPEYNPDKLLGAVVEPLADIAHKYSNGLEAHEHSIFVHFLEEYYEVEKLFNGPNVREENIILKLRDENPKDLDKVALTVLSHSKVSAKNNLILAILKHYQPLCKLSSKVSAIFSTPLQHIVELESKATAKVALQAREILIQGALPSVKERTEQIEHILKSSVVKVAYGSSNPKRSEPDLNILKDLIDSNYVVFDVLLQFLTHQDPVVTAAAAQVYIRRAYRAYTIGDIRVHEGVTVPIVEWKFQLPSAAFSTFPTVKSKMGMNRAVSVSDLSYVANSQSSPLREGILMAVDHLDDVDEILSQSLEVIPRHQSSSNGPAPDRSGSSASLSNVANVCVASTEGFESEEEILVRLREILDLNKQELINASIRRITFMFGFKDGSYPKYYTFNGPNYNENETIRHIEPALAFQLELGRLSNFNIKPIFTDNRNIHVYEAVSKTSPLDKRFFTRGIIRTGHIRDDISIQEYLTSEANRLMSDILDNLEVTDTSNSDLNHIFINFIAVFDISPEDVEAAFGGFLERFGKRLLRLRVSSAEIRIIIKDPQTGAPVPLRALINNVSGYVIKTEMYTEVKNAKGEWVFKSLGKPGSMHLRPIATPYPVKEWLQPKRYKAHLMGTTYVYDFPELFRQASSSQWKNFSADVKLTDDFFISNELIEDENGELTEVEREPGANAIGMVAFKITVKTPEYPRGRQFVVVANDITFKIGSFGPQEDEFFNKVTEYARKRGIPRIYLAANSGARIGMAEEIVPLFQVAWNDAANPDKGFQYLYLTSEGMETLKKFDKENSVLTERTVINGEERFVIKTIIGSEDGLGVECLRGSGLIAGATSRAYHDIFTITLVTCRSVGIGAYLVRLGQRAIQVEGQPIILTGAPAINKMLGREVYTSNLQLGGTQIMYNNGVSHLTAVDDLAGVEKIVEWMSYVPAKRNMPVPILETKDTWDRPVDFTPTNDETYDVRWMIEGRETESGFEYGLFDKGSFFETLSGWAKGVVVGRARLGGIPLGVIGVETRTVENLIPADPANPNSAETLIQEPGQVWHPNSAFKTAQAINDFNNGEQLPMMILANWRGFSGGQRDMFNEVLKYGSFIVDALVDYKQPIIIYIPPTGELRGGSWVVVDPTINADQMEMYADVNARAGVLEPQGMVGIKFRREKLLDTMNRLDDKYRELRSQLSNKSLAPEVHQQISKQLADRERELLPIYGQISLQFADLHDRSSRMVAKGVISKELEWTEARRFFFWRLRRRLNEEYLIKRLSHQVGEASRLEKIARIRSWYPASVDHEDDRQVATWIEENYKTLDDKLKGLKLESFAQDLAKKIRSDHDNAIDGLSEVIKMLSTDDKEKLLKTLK

SMILES	IC50 (human (hACC2); Table 2b, additional results)	IC90 [1]	IC90 [2, 5]	IC90 (Botrtyis cinerea (Bc); [6])	IC90 [3, 7]	IC90 (Rhizoctonia solani (Rs); [8])	IC50 (fungal (fACC2); Table 2a)	IC50 (fungal (fACC2); Table 2b, additional results)	IC50 (human (hACC2); Table 2a)	IC90 [1, 18]	IC90 [2, 19]	IC90 (Botrtyis cinerea (Bc); [20])	IC90 [3, 21]	IC90 (Rhizoctonia solani (Rs); [22])	MIC (C. krusei; [24])	IC90 (Diplodia maydis (Dm); [25])	IC90 [4, 26]	MIC (C. parapsilosis; [28])	IC90 (Septoria tritici (St); [29])	MIC (C. albicans; [31])	further results
COc1ccc(F)cc1[C@H](Cn1c(=O)n(C(C)(C)C(=O)NC(C)C)c(=O)c2c(C)c(-n3nccn3)sc21)OCC#N [Compound I-144]	5 to 10 nM	2 µg/mL (≈ 3.43 µM)	> 50 µg/mL	0.4 µg/mL (≈ 0.685 µM)	0.4 µg/mL (≈ 0.685 µM)	0.08 µg/mL (≈ 0.137 µM)	1 to 5 nM	1 to 5 nM	–	–	–	–	–	–	–	–	–	–	–	–	MIC (C. krusei; [9]): 0.25 to 1 µg/mL (≈ 0.428 to 1.71 µM); MIC (C. krusei; [10]): 0.25 to 1 µg/mL (≈ 0.428 to 1.71 µM); IC90 (Diplodia maydis (Dm); [11]): 0.4 µg/mL (≈ 0.685 µM); IC90 [4, 12]: 0.4 µg/mL (≈ 0.685 µM); MIC (C. parapsilosis; [13]): 0.25 to 1 µg/mL (≈ 0.428 to 1.71 µM); MIC (C. parapsilosis; [14]): 1.01 to 2 µg/mL (≈ 1.73 to 3.43 µM); IC90 (Septoria tritici (St); [15]): > 50 µg/mL; MIC (C. albicans; [16]): 0.25 to 1 µg/mL (≈ 0.428 to 1.71 µM); MIC (C. albicans; [17]): 1.01 to 2 µg/mL (≈ 1.73 to 3.43 µM)
COc1ccc(F)cc1[C@H](Cn1c(=O)n(C(C)(C)C(=O)NC(C)C)c(=O)c2c(C)c(-n3nccn3)sc21)OC[C@@H](C)C#N [Compound I-150]	1 to 5 nM	–	–	–	–	–	0.4 to 1 nM	0.3 to 1 nM	1 to 5 nM	0.08 µg/mL (≈ 0.131 µM)	> 50 µg/mL	0.4 µg/mL (≈ 0.654 µM)	0.08 µg/mL (≈ 0.131 µM)	0.08 µg/mL (≈ 0.131 µM)	0.25 to 1 µg/mL (≈ 0.409 to 1.63 µM)	0.08 µg/mL (≈ 0.131 µM)	0.4 µg/mL (≈ 0.654 µM)	0.25 to 1 µg/mL (≈ 0.409 to 1.63 µM)	> 50 µg/mL	0.25 to 1 µg/mL (≈ 0.409 to 1.63 µM)	MIC (C. krusei; [23]): 0.25 to 1 µg/mL (≈ 0.409 to 1.63 µM); MIC (C. parapsilosis; [27]): 0.25 to 1 µg/mL (≈ 0.409 to 1.63 µM); MIC (C. albicans; [30]): 0.25 to 1 µg/mL (≈ 0.409 to 1.63 µM)
COc1ccc(F)cc1[C@H](Cn1c(=O)n(C(C)(C)C(=O)NC(C)C)c(=O)c2c(C)c(-n3nccn3)sc21)OC[C@H](C)C#N [Compound I-151]	1 to 5 nM	–	–	–	–	–	0.4 to 1 nM	0.3 to 1 nM	5 to 10 nM	0.08 µg/mL (≈ 0.131 µM)	> 50 µg/mL	0.4 µg/mL (≈ 0.654 µM)	0.08 µg/mL (≈ 0.131 µM)	0.08 µg/mL (≈ 0.131 µM)	0.25 to 1 µg/mL (≈ 0.409 to 1.63 µM)	0.08 µg/mL (≈ 0.131 µM)	0.4 µg/mL (≈ 0.654 µM)	0.25 to 1 µg/mL (≈ 0.409 to 1.63 µM)	> 50 µg/mL	0.25 to 1 µg/mL (≈ 0.409 to 1.63 µM)	MIC (C. krusei; [23]): 0.25 to 1 µg/mL (≈ 0.409 to 1.63 µM); MIC (C. parapsilosis; [27]): 0.25 to 1 µg/mL (≈ 0.409 to 1.63 µM); MIC (C. albicans; [30]): 0.25 to 1 µg/mL (≈ 0.409 to 1.63 µM)
COc1ccc(F)cc1[C@H](Cn1c(=O)n(C(C)(C)C(=O)NC(C)C)c(=O)c2c(C)c(-n3nccn3)sc21)OCC(C)(C)C#N [Compound I-154]	5 to 10 nM	0.08 µg/mL (≈ 0.128 µM)	> 50 µg/mL	0.4 µg/mL (≈ 0.639 µM)	0.4 µg/mL (≈ 0.639 µM)	0.08 µg/mL (≈ 0.128 µM)	1 to 5 nM	1 to 5 nM	5 to 10 nM	–	–	–	–	–	–	–	–	–	–	–	MIC (C. krusei; [9]): 0.25 to 1 µg/mL (≈ 0.4 to 1.6 µM); MIC (C. krusei; [10]): 0.25 to 1 µg/mL (≈ 0.4 to 1.6 µM); IC90 (Diplodia maydis (Dm); [11]): 0.08 µg/mL (≈ 0.128 µM); IC90 [4, 12]: 0.4 µg/mL (≈ 0.639 µM); MIC (C. parapsilosis; [13]): 0.25 to 1 µg/mL (≈ 0.4 to 1.6 µM); MIC (C. parapsilosis; [14]): 1.01 to 2 µg/mL (≈ 1.61 to 3.2 µM); IC90 (Septoria tritici (St); [15]): > 50 µg/mL; MIC (C. albicans; [16]): 0.25 to 1 µg/mL (≈ 0.4 to 1.6 µM); MIC (C. albicans; [17]): 0.25 to 1 µg/mL (≈ 0.4 to 1.6 µM)
COc1ccc(F)cc1[C@H](Cn1c(=O)n([C@H](C)C(=O)N2CCCC2)c(=O)c2c(C)c(-n3nccn3)sc21)OCCC#N [Compound I-187]	1 to 5 nM	–	–	–	–	–	–	1 to 5 nM	–	0.08 µg/mL (≈ 0.134 µM)	> 50 µg/mL	0.4 µg/mL (≈ 0.672 µM)	2 µg/mL (≈ 3.36 µM)	0.4 µg/mL (≈ 0.672 µM)	2.01 to 4 µg/mL (≈ 3.37 to 6.72 µM)	2 µg/mL (≈ 3.36 µM)	0.4 µg/mL (≈ 0.672 µM)	1.01 to 2 µg/mL (≈ 1.7 to 3.36 µM)	> 50 µg/mL	2.01 to 4 µg/mL (≈ 3.37 to 6.72 µM)	–
